Values after ≈ are worked out from the molar mass of the structure shown. Read-outs that look alike come from different tables or passages of the source.
How the values were obtained:
Aβ42 = Aβ42 ELISA of conditioned media, iPSC-derived neurons; format: cell-based, human; conditions: for IC50: Homo sapiens, Neuron
Excerpt: The human iPSC SAD2.3 (UCSD234i‐SAD2‐3) and HVRDi002A were purchased from Wicell, UKBi011A from the European Bank for induced pluripotent stem cells, Sigma, AG25367, AG25370, AG27606, AG27608, AG27609, AG28049, AG28262, and AG27602 from Coriell. All iPSCs were maintained and expanded on Matrigel (Growth factor reduced Matrigel matrix, Corning) in mTeSR1 complete medium (mTeSR1 medium + 5X supplement, Stem Cell Technologies). For iPSC‐Ns transgene delivery, each iPSC line was transduced with lentiviral particles for pLVX‐UbC‐rtTA‐Ngn2:2A:Ascl1 […]), followed by selection in the presence of puromycin ([…], Gibco). To initiate conversion, iPSCs were differentiated into neurons using the established Ascl1/Mash1 (33) and Neurogenin 2 (Ngn2) (34) protocols.
iPSC‐Ns or HEK‐APP695WT were treated with drugs, and secreted Aβ42 peptides inculture soup were quantified using the Human Amyloid β1‐42 human ELISA kit (Thermo Fisher) according to the manufacturer's protocol. Mouse brain extraction was performed as previously described, with minor modifications. Mouse brain tissues were homogenized at a 1:10 weight‐to‐volume ratio in Tris‐buffered saline (TBS; 50 mM Tris, pH 7.4, 150 mM NaCl) supplemented with 2 mM EDTA and protease inhibitors. TBS‐homogenized brains were centrifuged for 1 h at 16 000 g. To extract total Aβ, including insoluble fractions, formic acid was added to a final concentration of 70%, and the samples were thoroughly mixed by pipetting. Homogenates were centrifuged at 100 000 g for 1 h at 4°C, and the resulting supernatants were collected. Prior to quantification, formic acid‐containing samples were neutralized with 1 M Tris base (pH 11). Aβ40 and Aβ42 levels were measured using human‐specific ELISA kits (Invitrogen) and normalized to total protein concentrations determined by the BCA assay (Thermo Scientific). For Aβ quantification in 3D organoids, 3D organoids’ processing and ELISA analysis were performed with minor modifications from previously described protocols. Briefly, cerebral organoids were lysed in RIPA buffer supplemented with protease and phosphatase inhibitor cocktails (Sigma), followed by sonication and incubation on ice for 60 min. Lysates were centrifuged at 13 000 rpm for 1 h at 4°C, and the supernatants were collected as the RIPA‐soluble fraction. The remaining pellets were resuspended in 70% formic acid, sonicated, and subsequently neutralized with Tris buffer to obtain the formic acid‐solubilized fraction. Aβ42 levels in both fractions were measured using human‐specific ELISA kits (Thermo Fisher) according to the manufacturer's instructions. Formic acid extracts were appropriately neutralized prior to ELISA. Aβ levels were normalized to total protein concentration determined by BCA assay.

Kinetic solubility assay = format: physicochemical; conditions: for solubility at 24 h: aqueous buffer, kinetic from dmso stock, phosphate buffer pH 7.4, 24 h, room temperature, LC-MS, read-out: Solubility PBS
Description: 10 µL of 10 mM DMSO stock solution of test and control compounds was added to 990 µL phosphate buffer with pH 7.4. […] Samples were centrifuged, and the supernatant was transferred into a filter plate. Then, the filtrates were quantified by an LC‐MS system to get solubility results.

MDR1 (P-gp) = experiment: MDR1-MDCKII permeability assay; format: in vitro ADME; conditions: dog, MDCK-MDR1, pH 7.4, MDR1-MDCKII
Description: (§1) MDR1‐MDCKII assay was processed by Sai Life Sciences Pvt. Ltd. Briefly, MDR1‐MDCKII cells were seeded onto the polycarbonate membranes in the 24‐well insert system at 0.12 × 10^6 cells/well and cultured for 8 days until confluence before being used for the transport studies. Test compounds were diluted with the transport buffer (HPSS with 10 mM HEPES, pH 7.4) from a DMSO stock solution to a concentration of 2 µM (DMSO < 1%) and applied to the apical or basolateral side of the cell monolayer. The plate was incubated for 2.0 h in a CO2 incubator at 37±1°C, with 5% CO2 at saturated humidity without shaking. Permeability was measured in duplicate (n = 2) in both A→B and B→A directions. Loperamide (P‐gp efflux substrate) was tested at 2 µM bidirectionally, Verapamil was used as P‐gp inhibitor. While Atenolol (low permeability marker) and Propranolol (high permeability marker) were tested at 2.00 µM in the A to B direction in duplicate. Test and reference compounds were quantified by LC‐MS/MS analysis based on the peak area ratio of analyte/internal standard (IS). The efflux ratio of each compound was calculated. Permeability measurements were performed in duplicate (n = 2) in both directions, and the summarized permeability values and efflux ratios are presented in Figure 3A. The corresponding experimental data, including bidirectional Papp values, recovery, and variability (%CV), are provided in Table S3, thereby supporting the results shown in Figure 3A. After the transport assay, Lucifer yellow fluorescence rejection assay was performed to confirm the integrity of the cell monolayer.

P-gp (MDR1) = experiment: MDR1-MDCKII permeability assay; format: in vitro ADME; conditions: dog, MDCK-MDR1, pH 7.4, MDR1-MDCKII, 2 µM, 2.0 h, n = 2; for Papp A→B at 2 h, 2 µM: read-out: Apical to basal (AP-BL) Papp; for Papp B→A at 2 h, 2 µM: read-out: Basal to apical (BL-AP) Papp
Description: as §1

APP = APP (Homo sapiens, UniProt P05067); experiment: Western blot of APP in iPSC-derived neurons; format: cell-based; set-up: endogenous in cells; host or cells: iPSC-derived neurons (AG27606-Ns, sAD2.3-Ns and others); conditions: for APP-degrading activity after Bafilomycin A1 pretreatment: Baf A1 20 nM, AG27606-Ns, sAD2.3-Ns, HEK-APP695 cells; for APP-degrading activity after Bafilomycin A1 pretreatment / APP-degrading activity after MG132 pretreatment: 30 min, then compound 10 µM, 24 h; for APP-degrading activity after MG132 pretreatment: MG132 5 µM
[1] = 120 h, AG27606 neurons, 5-day treatment, ELISA, normalized to DMSO, read-out: IC50, Aβ42 dose–response
[2] = read-out: % Recovery (Overall) - Apical to basal
[3] = read-out: % Recovery (Overall) - Basal to Apical

Sequence of APP (P05067 18-695 isoform P05067-4): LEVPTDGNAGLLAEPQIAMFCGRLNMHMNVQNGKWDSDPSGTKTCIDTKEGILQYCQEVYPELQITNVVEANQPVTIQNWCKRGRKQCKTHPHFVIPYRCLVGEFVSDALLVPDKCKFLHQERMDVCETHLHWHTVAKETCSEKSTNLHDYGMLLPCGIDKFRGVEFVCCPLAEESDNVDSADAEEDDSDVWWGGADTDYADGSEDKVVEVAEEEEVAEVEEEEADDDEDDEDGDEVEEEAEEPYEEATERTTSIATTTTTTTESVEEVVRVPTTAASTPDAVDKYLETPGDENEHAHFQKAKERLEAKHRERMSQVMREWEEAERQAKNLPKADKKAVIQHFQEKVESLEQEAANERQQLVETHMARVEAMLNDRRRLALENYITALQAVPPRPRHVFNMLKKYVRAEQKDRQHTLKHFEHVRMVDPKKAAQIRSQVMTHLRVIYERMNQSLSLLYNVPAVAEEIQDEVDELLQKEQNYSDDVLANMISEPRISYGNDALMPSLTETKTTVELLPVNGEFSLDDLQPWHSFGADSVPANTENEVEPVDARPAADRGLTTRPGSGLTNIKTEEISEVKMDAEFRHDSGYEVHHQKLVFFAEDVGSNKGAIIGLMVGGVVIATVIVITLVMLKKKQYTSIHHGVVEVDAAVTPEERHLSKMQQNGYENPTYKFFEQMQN
Sequence of APP (Q14444 whole entry partner): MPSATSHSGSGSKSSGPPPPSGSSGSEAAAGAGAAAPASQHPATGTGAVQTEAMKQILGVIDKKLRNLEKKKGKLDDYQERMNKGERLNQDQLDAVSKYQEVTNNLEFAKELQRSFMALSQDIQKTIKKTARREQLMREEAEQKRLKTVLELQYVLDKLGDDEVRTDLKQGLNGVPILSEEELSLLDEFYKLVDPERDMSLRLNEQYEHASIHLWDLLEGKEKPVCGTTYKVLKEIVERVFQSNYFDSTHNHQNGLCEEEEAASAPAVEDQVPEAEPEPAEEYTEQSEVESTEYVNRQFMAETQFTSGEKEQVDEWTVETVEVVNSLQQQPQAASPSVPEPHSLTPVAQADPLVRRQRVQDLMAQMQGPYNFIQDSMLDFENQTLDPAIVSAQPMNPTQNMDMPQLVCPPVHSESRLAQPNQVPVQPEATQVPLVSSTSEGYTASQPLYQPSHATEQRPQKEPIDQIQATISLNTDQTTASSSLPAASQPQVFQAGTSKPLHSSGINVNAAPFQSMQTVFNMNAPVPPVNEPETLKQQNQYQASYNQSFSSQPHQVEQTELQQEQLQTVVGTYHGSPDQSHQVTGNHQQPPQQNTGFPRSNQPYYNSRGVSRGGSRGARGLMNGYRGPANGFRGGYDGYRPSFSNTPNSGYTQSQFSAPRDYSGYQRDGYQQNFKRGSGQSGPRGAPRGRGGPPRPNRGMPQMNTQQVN

| Structure (SMILES) | Aβ42 secretion across iPSC-Ns from sAD, fAD and non-AD donors (Aβ42; 10 µM, 72 h) | IC50 (Aβ42; [1]) | IC50 (Aβ42; 120 h, sAD2.3 neurons, 5 days treatment, ELISA, read-out: IC50, relative Aβ42 levels in conditioned media) | IC50 (Aβ42; SAD2.3-Ns and AG27606-Ns, read-out: IC50 values, Aβ42 secretion) | Aβ42 levels in culture media (Aβ42; sAD2.3 neurons, 10 µM, 72 h) | Aqueous solubility by LC-MS, in words (Kinetic solubility assay) | solubility at 24 h (Kinetic solubility assay) | recovery at 2 h, 2 µM (MDR1 (P-gp); [2]) | recovery at 2 h, 2 µM (MDR1 (P-gp); [3]) | efflux ratio at 2 h, 2 µM (P-gp (MDR1)) | Papp A→B at 2 h, 2 µM (P-gp (MDR1)) | Papp B→A at 2 h, 2 µM (P-gp (MDR1)) | APP-degrading activity after Bafilomycin A1 pretreatment (APP) | APP-degrading activity after MG132 pretreatment (APP) | Intracellular APP (western blot) (APP; SAD2.3-Ns and AG27606-Ns, 72 h, BI 10 µM) |
| --- | --- | --- | --- | --- | --- | --- | --- | --- | --- | --- | --- | --- | --- | --- | --- |
| N#Cc1cccc(NC(=O)Nc2nc3ccc(C(=O)N4CCOCC4)cc3s2)c1 [compound 0043] | effectively lowered Aβ42 secretion | 2100 nM | 1800 nM | 1800 to 2100 nM | reduced Aβ42 levels | poor aqueous solubility | 0.06 µg/mL (≈ 0.147 µM) | 121% | 106% | 114 | 0.4 ×10⁻⁶ cm/s | 42.6 ×10⁻⁶ cm/s | abolished | no effect | reduced intracellular APP |
| COc1cccc(NC(=O)Nc2nc3ccc(C(=O)N4CCOCC4)cc3s2)c1 [compound 0152] | consistently reduced both APP and Aβ42 levels | 900 nM |  |  |  | significantly improved aqueous solubility | 0.4 µg/mL (≈ 0.97 µM) | 121% | 141% | 78 | 0.5 ×10⁻⁶ cm/s | 37.4 ×10⁻⁶ cm/s | abolished | no effect |  |
